Holding throughout (test): NCI-60 cell line screen, 48 h
For assay [1], the system named is ACHN renal.
The test system of assay [2] is SK-MEL-5 melanoma.
Assay [3] deals with CAKI-1 renal.
The test system of assay [4] is UO-31 renal.
For assay [5], the system named is NCI-H460 lung.
Assay [6] relates to HCT-116 colon.
In assay [7] the test system is NCI-H522 lung.
Assay [8] deals with K-562 leukemia.
Assay [9] concerns UACC-257 melanoma.
The subject of assay [10] is OVCAR-4 ovarian.
In assay [11] the test system is SW-620 colon.
Assay [12] concerns NCI-H226 lung.

Molecules are shown by their SMILES.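 Exposure lasted 48 hours, with cells grown in 96-well plates and compounds tested at five concentrations. TGI is the concentration that stops growth completely.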

`CC1C(c2ccccc2)=CCON1c1ccccc1` (stereo unspecified): the TGI in assay [1], in assay [2], in assay [3], in assay [4], in assay [5] and in [6] was > 100 µM in each case. Also, the TGI in [7], in assay [8], in assay [9], in [10], in assay [11] and in assay [12] was > 100 µM throughout.

For the compound `CC[N+](CC)(CC)Cc1cn(S(=O)(=O)c2ccccc2)c2ccccc12`, the TGI in [1], in assay [2], in assay [3], in assay [4], in [5] and in [6] was > 100 µM in each case. The TGI in assay [7], in assay [8], in [9], in assay [10], in assay [11] and in assay [12] was > 100 µM in each case.

For `N#CC(c1ccc(Cl)cc1)c1cccc(Cl)n1` (stereo unspecified), the TGI in assay [1], in [3], in assay [4], in assay [5], in assay [7] and in assay [8] was > 100 µM throughout. Moreover, the TGI in assay [9], in assay [10], in [11] and in [12] was > 100 µM in each case.

Turning to `CN(C)c1cccc(-c2cc(=O)c3cc4c(cc3[nH]2)OCO4)c1`, the TGI in assay [1] was > 37 µM; in assay [2] it was 2.83 µM; in assay [3], > 100 µM; in [4] it was > 100 µM; in [5], 0.987 µM; in assay [7], 0.275 µM. Further, the TGI in assay [8] is > 100 µM; in assay [9], > 100 µM; in assay [10], 4.59 µM; in assay [11], > 100 µM; in [12] it was 1.32 µM.

For the compound `Cc1cccc(NC(=O)CSc2nnc(Cc3ccccc3)o2)c1`, the TGI in assay [1], in assay [2], in [3], in assay [4], in assay [5] and in assay [6] was > 100 µM in each case. For the same compound, the TGI in assay [7], in [8], in [9], in assay [10], in assay [11] and in [12] was > 100 µM throughout.

For the compound `CC(C)(C)c1cc(N=NC(=S)NCc2ccccc2)cc(C(C)(C)C)c1O`, the TGI in assay [1], in assay [2], in assay [4], in assay [5], in assay [6] and in [8] was > 100 µM in each case. The TGI in assay [9], in assay [10], in [11] and in assay [12] was > 100 µM throughout.

`c1cc2[se][se]c3c4cccc5[se][se]c(c(c1)c23)c54`: the TGI in [1], in assay [2], in assay [3], in [4], in assay [5] and in assay [6] was > 100 µM each time. For the same compound, the TGI in assay [7], in assay [8], in assay [9], in [10], in assay [11] and in assay [12] was > 100 µM throughout.

For `C1=Cc2nc1c(-c1ccccc1)c1ccc([n-]1)c(-c1ccccc1)c1nc(c(-c3ccccc3)c3ccc([n-]3)c2-c2ccccc2)C=C1.[Zn+2]`, the TGI in [1], in [2], in assay [3], in assay [4], in assay [5] and in assay [6] was > 100 µM throughout. Further, the TGI in assay [7], in assay [8], in assay [9], in assay [10], in assay [11] and in [12] was > 100 µM throughout.

With `CCC12CC[C@H](C#N)N3CCc4c(n(c5ccccc45)C(=O)C1)C32` (stereo partly specified), the TGI in [2] is 27.2 µM; in [3], 34.3 µM; in assay [4], 10.2 µM; in assay [5] it was 33.8 µM; in [6] it was 26.8 µM; in [8], 35 µM. Moreover, the results for the TGI in assay [9], in assay [10] and in assay [11] were 32.9 µM, 31.7 µM and 51.7 µM, respectively.

On to `NC(=S)Nc1nnc(-c2ccc(-c3nnc(NC(N)=S)o3)cc2)o1`, for which the TGI in assay [1], in assay [2], in [3], in assay [4], in [5] and in assay [6] was > 100 µM each time. Further, the TGI in assay [7], in assay [8], in assay [9], in assay [10], in [11] and in assay [12] was > 100 µM throughout.

Turning to `O=C(CSc1nnc(-c2ccc(N=Cc3ccc(Cl)cc3)cc2)o1)Nc1ccccc1`, the TGI in [1] was > 100 µM; in assay [2], > 100 µM; in assay [4], > 100 µM; in assay [5], > 100 µM; in [6], 31.1 µM; in assay [7] it was 35.5 µM. Moreover, the TGI in assay [8], in assay [9], in [10], in [11] and in assay [12] was > 100 µM in each case.

On to `CCOC(=O)C(=O)Nc1ccc([N+](=O)[O-])cc1C#N`, for which the TGI in assay [1], in [2], in [3], in assay [4], in [5] and in [6] was > 100 µM throughout. Besides, the TGI in assay [7], in assay [8], in assay [9], in assay [10], in assay [11] and in assay [12] was > 100 µM each time.

As for `O=C1OC(c2ccccc2)(c2ccccc2)CC1CN1CCOCC1` (stereo unspecified), the TGI was 32 µM in assay [1]; > 100 µM in assay [2]; 99.4 µM in assay [4]; > 100 µM in [5]; 25.3 µM in assay [6]; 22.8 µM in [7]. For the same compound, the TGI in [8] is 78.7 µM; in assay [9] it was 20.9 µM; in [10] it was 40.9 µM; in assay [11] it was 18 µM.

For `Clc1ccc2c(Cl)ncnc2c1I`, the TGI in assay [2] is > 100 µM; in assay [3], > 100 µM; in assay [4], > 100 µM; in assay [5] it was > 100 µM; in assay [6], > 100 µM; in [7] it was 56.6 µM. Besides, the TGI is > 100 µM in [8]; > 100 µM in [9]; > 100 µM in [10]; > 100 µM in [11]; 93.3 µM in assay [12].

Consider `O=C(/C=C(\O)C(=O)O)/C=C(\O)c1ccccc1Cl`, for which the TGI in assay [1], in [2], in assay [3], in [4], in [5] and in assay [6] was > 100 µM in each case. Also, the TGI in assay [7], in assay [8], in assay [9], in assay [10], in assay [11] and in assay [12] was > 100 µM throughout.

Consider `CCOC(=O)C1=C(C)C2C3C(=O)NC(=O)C3C1(C)C1C(=O)NC(=O)C21` (stereo unspecified), for which the TGI in assay [1], in assay [2], in [4], in [5], in assay [6] and in assay [8] was > 100 µM in each case. Besides, the TGI in [9], in assay [10], in assay [11] and in [12] was > 100 µM throughout.

As to `O=C(/C=C\c1cccc2ccccc12)c1ccc(Br)cc1`, the TGI in assay [1] was 31.2 µM; in assay [2], 38.7 µM; in assay [3] it was > 100 µM; in assay [4], 42.5 µM; in assay [5], 37.2 µM; in assay [6], 30.3 µM. The TGI in assay [7] is 35.3 µM; in assay [8] it was 44.2 µM; in [9], 51.9 µM; in assay [10], 35.5 µM; in assay [11], 24.4 µM; in [12], > 100 µM.

Turning to `N=c1oc2cc(O)c(O)cc2cc1C(N)=O`, the TGI in assay [1], in assay [2], in [3], in assay [4], in assay [5] and in assay [6] was > 100 µM in each case. For the same compound, the TGI in assay [7], in [8], in [9], in assay [10], in assay [11] and in assay [12] was > 100 µM in each case.

Turning to `CC1=C(N(C)C)C(=O)c2nc3n(c2C1=O)CCC3OC(N)=O` (stereo unspecified), the TGI in [1] turned out to be 30.4 µM; in [2] it was 23.7 µM; in assay [3], 33.1 µM; in [4] it was 31.1 µM; in [5], 30.4 µM; in assay [6], 28.8 µM. Moreover, the TGI in [7] was determined as 28.8 µM; in [8], 49.8 µM; in assay [9], 27.6 µM; in assay [10] it was 34.7 µM; in [11], 33.6 µM; in assay [12], 33.7 µM.

In the case of `O=C(O/N=C1/CCC/C1=C\c1ccccc1)c1ccccc1`, the TGI in [1], in [2], in [3], in assay [6], in [7] and in [8] was > 100 µM throughout. The TGI in assay [9], in assay [10], in assay [11] and in assay [12] was > 100 µM in each case.

On to `COc1ccc2c(c1)CC1NC2Cc2ccccc21` (stereo unspecified), for which the TGI in [1], in assay [2], in assay [3], in assay [4], in [5] and in [6] was > 100 µM in each case. For the same compound, the TGI in [7], in assay [8], in assay [9], in assay [10] and in [11] was > 100 µM each time.

Consider `Cc1nc2c(s/c(=N\N)n2-c2ccccc2)c(=O)[nH]1`, for which the TGI in [1], in [2], in [3], in [4], in assay [5] and in assay [6] was > 100 µM throughout. Besides, the TGI in assay [7], in [8], in [9], in [10], in assay [11] and in [12] was > 100 µM each time.

For `Cc1nc(Nc2ccccc2)sc1C(=O)NNC(N)=O`, the TGI in assay [1], in assay [2], in [3], in assay [4], in assay [5] and in assay [6] was > 100 µM in each case. Moreover, the TGI in [7] was > 100 µM; in [8], > 100 µM; in assay [9], 71.6 µM; in assay [10] it was > 100 µM; in [11], > 100 µM; in assay [12], > 100 µM.

Take `Cc1c(C(=O)Nc2ccc(Cl)c(C(F)(F)F)c2)oc2cc(O)ccc2/c1=N\NC(N)=S`: the TGI in assay [1], in assay [2], in assay [3], in assay [4], in assay [5] and in [6] was > 100 µM each time. For the same compound, the TGI in [7], in assay [8], in [9], in assay [10], in assay [11] and in assay [12] was > 100 µM in each case.

(Values after PubChem BioAssay (NCI).)
